Consider 30 compounds from PubChem BioAssay (NCI).

What all share (assay): NCI anticancer screen, dose series, 48 h
Assay [1] relates to SN12C renal.
The subject of assay [2] is A549 NSCLC.
The test system of assay [3] is SK-MEL-28 melanoma.
Assay [4] deals with NCI-H23 lung.
The subject of assay [5] is CAKI-1 renal.
Assay [6] deals with SNB-19 CNS.
Assay [7] has as its system HCT-116 colon.
Assay [8] deals with MDA-MB-435.
Assay [9] concerns DU-145 prostate.
In assay [10] the test system is T-47D breast.

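All cell lines were grown in 96-well plates and treated with compound for 48 hours. Abbreviation: GI50, concentration required for 50% inhibition of growth. TGI: concentration producing complete growth inhibition.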 A value given as a limit tells only on which side of the number the result lay.

Consider `CC(=O)Oc1cc2c(cc1OC(C)=O)C1(C)CCC2(C)c2cc(OC(C)=O)c(OC(C)=O)cc21`, for which the TGI is over 100 µM in assay [1]; over 100 µM in assay [2]; over 100 µM in assay [3]; over 100 µM in assay [4]; 90.5 µM in [5]; 22.4 µM in assay [6].
In the case of `COC(=O)C(=O)CC(=O)CCn1[nH]c(=O)c(Cl)c(Cl)c1=O`, the TGI in [1], in assay [2], in [3], in assay [7], in assay [4] and in assay [5] was over 100 µM throughout. Moreover, in [6], the TGI is over 100 µM.
Turning to `CCCOC(=O)N[C@H]1CCc2c(Cl)c(OC)c(OC)c(OC)c2-c2ccc(SC)c(=O)cc21`, the GI50 in [8] was under 0.01 µM; in assay [1], under 0.0123 µM; in assay [2], under 0.0153 µM; in assay [9] it was under 0.01 µM; in assay [3], 2.02 µM; in assay [7], under 0.01 µM. The GI50 is under 0.01 µM in [4], under 0.0226 µM in assay [5] and under 0.01 µM in assay [6]. Besides, the TGI is under 0.01 µM in assay [8]; 13.6 µM in assay [1]; over 100 µM in assay [2]; 0.0575 µM in [9]; 23.5 µM in assay [3]; 12.7 µM in assay [7]. The TGI in assay [4] stood at 32.5 µM; in assay [5], 14.1 µM; in [6] it was 27.4 µM.
As to `CCC[CH2][Sn]([CH2]CCC)([O]C(=O)CN)[O]C(=O)CN`, the GI50 was 57.2 µM in assay [1]; over 100 µM in assay [2]; 29.2 µM in assay [3]; 71.2 µM in assay [7]; 21.1 µM in assay [4]; 14.7 µM in [5]. Moreover, the GI50 in [6] is 45.5 µM. In addition, the TGI is over 100 µM in assay [1]; over 100 µM in assay [2]; over 100 µM in assay [3]; over 100 µM in assay [7]; 70.2 µM in assay [4]; 51.1 µM in assay [5]. In assay [6], the TGI is over 100 µM.
Regarding `CC(=O)c1ccc(NC(=O)/C(CC(=O)c2sc(-c3cccnc3)nc2C)=N/NC(N)=O)cc1`, the TGI is over 100 µM in assay [1]; 71.2 µM in [2]; over 100 µM in [3]; 42.5 µM in assay [7]; 86 µM in assay [5]; over 100 µM in [6].
Regarding `O=C(Nc1ccc(Cl)cc1)C1C(=O)C(=O)N(c2ccc(Cl)cc2)C1=O` (stereo not drawn), the TGI in assay [1], in assay [2], in [3], in assay [7], in assay [4] and in assay [5] was over 100 µM throughout. The compound further returned a TGI in assay [6] of over 100 µM.
Take `Cc1ccc(S(=O)(=O)N/N=C2\CCCCC23CCC(=O)NC3)cc1` (stereo not drawn): the TGI in [1], in [2], in assay [3], in [7], in assay [5] and in [6] was over 100 µM in each case.
For the compound `N/N=C\c1c2ccccc2c(=O)n2c1oc1ccccc12`, the GI50 in assay [8] is 11.3 µM; in [1], 14.4 µM; in assay [2] it was 11.2 µM; in [10], 20.5 µM; in [9], 10.6 µM; in assay [3], 18.8 µM. Also, the values for the GI50 in assay [4], in assay [5] and in [6] were 15.7 µM, 14.2 µM and 17.8 µM, respectively. For the same compound, the TGI in assay [8] is 23.8 µM; in assay [1] it was 29.7 µM; in [2], 41.7 µM; in assay [10] it was 39.9 µM; in assay [9], 24.9 µM; in assay [3], 38.7 µM. Further, the TGI came out at 29.9 µM in assay [4], 27.3 µM in assay [5] and 38.7 µM in assay [6].
Consider `COc1ccc([C@@]2(O)c3c(ccc(O)c3OC)[C@H]2OC)c(OC)c1`, for which the TGI in [1], in assay [2], in [3], in assay [7], in [4] and in assay [5] was over 100 µM throughout. The compound further returned a TGI in [6] of over 100 µM.
As for `COc1ccc2c(c1)C(=O)CCc1cc(OC)c(OC)c(OC)c1-2`, the TGI in [8] is 0.0717 µM; in assay [1], over 100 µM; in [2], over 100 µM; in assay [3] it was over 100 µM; in assay [7], over 100 µM; in assay [4] it was 0.0617 µM. The TGI in [5] and in assay [6] was over 100 µM throughout. The GI50 is under 0.01 µM in [1]; under 0.01 µM in assay [2]; under 0.01 µM in [9]; 24.8 µM in assay [3]; under 0.01 µM in [7]; under 0.01 µM in assay [4]. Besides, the GI50 in assay [5] and in assay [6] was under 0.01 µM in each case.
As for `N#C/C(=C/c1cccc(Oc2ccccc2)c1)c1ccccc1`, the TGI in [1], in [2], in [3], in [7], in assay [4] and in assay [5] was over 100 µM throughout.
Take `COc1cc(NS(=O)(=O)c2ccc(C)cc2)c2nccnc2c1`: the TGI in assay [1], in assay [2], in [3], in assay [4], in assay [5] and in [6] was over 100 µM each time.
For the compound `NC1=NN(c2ccccc2)C(=O)C1C(=O)CCC(=O)Nc1cccc(Cl)c1` (stereo not drawn), the TGI in assay [1], in [2], in [3], in assay [7], in assay [4] and in assay [5] was over 100 µM each time. For the same compound, the TGI in assay [6] is over 100 µM.
For `Cc1ccc(S(=O)(=O)OC2CC=CC2)cc1`, the TGI in assay [1], in assay [2], in [3], in assay [7], in assay [5] and in [6] was over 100 µM each time.
On to `COc1ccc(C=O)cc1O[Si](C)(C)C(C)(C)C`, for which the TGI in assay [1], in assay [2], in assay [7], in assay [4], in [5] and in [6] was over 100 µM in each case.
Regarding `N#CCC(=O)N/N=C1/C(=O)N(c2ccc(Cl)cc2)C(=O)C(=O)C1c1nc2ccccc2s1` (stereo not drawn), the TGI in assay [1], in assay [2], in [3], in assay [7], in [4] and in assay [5] was over 100 µM each time. Further, the TGI in [6] is over 100 µM.
With `C[C@]12CC=CC(=O)[C@@]1(C)CCC(=O)C2`, the TGI in assay [1], in assay [2], in assay [3], in [7], in [4] and in assay [5] was over 100 µM throughout. Also, the TGI in [6] was over 100 µM.
Turning to `CCN(CC)CCNC(Cc1ccccc1)c1ccc(OCc2ccccc2)cc1` (stereo not drawn), the GI50 in assay [8] was 3.16 µM; in assay [1], 6.68 µM; in assay [2], 7.74 µM; in [9], 8.54 µM; in assay [3], 1.85 µM; in [7] it was 4.25 µM. The GI50 in [5] is 4.52 µM; in assay [6], 9.65 µM. The TGI worked out at 11 µM in [8]; 20.8 µM in assay [1]; 22 µM in assay [2]; 21.1 µM in [9]; 4.03 µM in [3]; 25.5 µM in assay [7]. Also, the TGI in assay [5] stood at 16.7 µM; in assay [6], 22.8 µM.
Turning to `[N-]=[N+]=NCCCn1c2c(c3ccc([N+](=O)[O-])cc3c1=O)C(=O)c1ccccc1-2`, the GI50 was over 100 µM in [8]; 72.5 µM in assay [1]; 14.4 µM in [2]; over 100 µM in [9]; over 100 µM in assay [3]; 8.17 µM in assay [7]. For the same compound, the results for the GI50 in assay [4] and in assay [5] were 9.25 µM and 5.11 µM, respectively. In addition, the TGI in [8], in assay [1], in [2], in assay [9], in assay [3] and in assay [7] was over 100 µM in each case. Also, the TGI in [4] is over 100 µM; in [5], 43.3 µM.
For the compound `O=C1N/C(=C\[N+](=O)[O-])c2ccccc21`, the TGI in [1], in assay [2], in [3], in [7], in [4] and in [6] was over 100 µM each time.
With `O=C(Nc1cccc(O)c1)C(=O)C1C(=O)NC(=S)NC1=O`, the TGI in [1], in [2], in assay [3], in [7], in assay [4] and in assay [5] was over 100 µM in each case. Moreover, the TGI in assay [6] is over 100 µM.
As to `CC1(O)C(C)(O)C2(C)O[Te]3(OC12C)OC1(C)C(C)(O)C(C)(O)C1(C)O3` (stereo not drawn), the TGI in assay [1] is over 100 µM; in assay [2], 79 µM; in [3], 38.1 µM; in assay [4] it was 29.7 µM; in [6], over 100 µM.
For `NC(CCCC(N)P(=O)(O)O)P(=O)(O)O` (stereo not drawn), the TGI in assay [1], in [2], in [3], in [7], in [4] and in [5] was over 100 µM throughout.
Regarding `CC(=O)C1C(c2ccccc2)C2(C)OC(=O)C(C#N)C12C` (stereo not drawn), the TGI in [1], in [2], in [3], in [7], in [4] and in assay [6] was over 100 µM each time.
`COc1cc(NCC(C#N)C#N)ccc1N=Nc1ccc(Cl)cc1`: the TGI is over 100 µM in assay [1]; over 100 µM in assay [2]; 80.1 µM in [3]; 62.2 µM in assay [7]; 65.4 µM in assay [4]; 61.6 µM in assay [6].
In the case of `O=C(Nc1ccc(C(F)(F)F)cc1[N+](=O)[O-])C(=O)C1NC(=S)NC1=O` (stereo not drawn), the TGI in assay [1] is 5.05 µM; in assay [2], over 100 µM; in assay [3] it was over 100 µM; in assay [7], over 100 µM; in [4] it was over 100 µM; in assay [5], over 100 µM. In addition, the TGI in assay [6] was over 100 µM.
On to `O=S(=O)(C1=CC(S(=O)(=O)c2ccccc2)CN(Cc2ccccc2)C1c1cccc2ccccc12)c1ccccc1` (stereo not drawn), for which the TGI in assay [1], in assay [2], in [3], in assay [7], in assay [4] and in assay [5] was over 69 µM each time. Further, the TGI in assay [6] was over 69 µM.
In the case of `CCCC1(CC(=O)O)OCCc2c1[nH]c1ccccc21` (stereo not drawn), the TGI in assay [1], in assay [2], in assay [3], in assay [4], in [5] and in assay [6] was over 100 µM throughout.
For the compound `CC(=O)Oc1c(C)c(-c2ccccc2)c(C)c(-c2ccccc2)c1C(=S)c1ccccc1`, the TGI in assay [1], in assay [2], in assay [3], in [7], in assay [4] and in [6] was over 100 µM throughout.
Take `CCOC(=O)[CH-]C(=O)C12CC3CC(CC(C3)C1)C2.CCOC(=O)[CH-]C(=O)C12CC3CC(CC(C3)C1)C2.CC[O-].CC[O-].[Ti+4]`: the GI50 in assay [1], in [2], in [3], in assay [7], in [4] and in assay [5] was over 100 µM in each case. In [6], the GI50 was over 100 µM. Also, the TGI in assay [1], in assay [2], in [3], in [7], in [4] and in assay [5] was over 100 µM throughout. The same compound came in with a TGI in assay [6] of over 100 µM.
